Data published in US8952024B2, “Herbicidal pyrimidone derivatives” (E I du Pont de Nemours and Company, priority 2009, dated 2015).

Assays:
Assay type in all cases: in vivo
[1] = tested on: barnyardgrass (Echinochloa crus-galli); assay: Test A pre-/postemergence plant response
Procedure, shortened: (§1)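 Visually rated 0–100 injury (100 = complete control) versus untreated plants, ~10 days in greenhouse. Application pre- (soil spray, loam/sand) and postemergence (2–10 cm, 1–2 leaf stage), same timepoint.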

corn (Zea mays) = assay: Test A pre-/postemergence plant response
Procedure, shortened: as §1

[2] = tested on: giant foxtail (Setaria faberii); assay: Test A pre-/postemergence plant response
Procedure, shortened: as §1

[3] = tested on: large crabgrass (Digitaria sanguinalis); assay: Test A pre-/postemergence plant response
Procedure, shortened: as §1

[4] = tested on: morningglory (Ipomoea spp.); assay: Test A pre-/postemergence plant response
Procedure, shortened: as §1

[5] = tested on: pigweed (Amaranthus retroflexus); assay: Test A pre-/postemergence plant response
Procedure, shortened: as §1

[6] = tested on: velvetleaf (Abutilon theophrasti); assay: Test A pre-/postemergence plant response
Procedure, shortened: as §1

[7] = tested on: wheat (Triticum aestivum); assay: Test A pre-/postemergence plant response
Procedure, shortened: as §1

[8] = tested on: cocklebur (Xanthium strumarium); assay: Test B pre-/postemergence plant response; settings: for Cocklebur plant response rating (0 to 100 scale): 62 g ai/ha, 0 is no effect, 13 to 15 days
Procedure, shortened: (§2)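 Each species received compound formulated in non-phytotoxic solvent with surfactant, either at planting into a loam and sand blend or as a foliar spray once plants reached 2 to 18 cm in peat-based medium. Plants stayed in the greenhouse 13 to 15 days before visual evaluation against controls, scored 0 (no effect) to 100 (complete control).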

[9] = tested on: morningglory (Ipomoea coccinea); assay: Test B pre-/postemergence plant response; settings: for Morningglory plant response rating (0 to 100 scale): 62 g ai/ha, 0 is no effect, 13 to 15 days
Procedure, shortened: as §2

soybean (Glycine max) = assay: Test B pre-/postemergence plant response; settings: for Soybean plant response rating (0 to 100 scale): 62 g ai/ha, postemergence, 0 is no effect, 100 is complete control, 13 to 15 days; for Plant response rating, Soybean: Postemergence, scale 0 to 100 (0 no effect, 100 complete control)
Procedure, shortened: as §2

[10] = tested on: wheat (Triticum aestivum); assay: Test B pre-/postemergence plant response; settings: for Wheat plant response rating (0 to 100 scale): 62 g ai/ha, postemergence, 0 is no effect, 100 is complete control, 13 to 15 days; for Plant response rating, Wheat: Postemergence, 125 g ai/ha, scale 0 to 100 (0 no effect, 100 complete control)
Procedure, shortened: as §2

[11] = Postemergence, 125 g ai/ha, 0 to 100 scale where 0 is no effect and 100 is complete control
[12] = Postemergence, 500 g ai/ha, 0 to 100 scale, 0 = no effect, 100 = complete control, approx. ten days
[13] = Preemergence, 125 g ai/ha, 0 to 100 scale, 0 = no effect, 100 = complete control
[14] = Preemergence, 500 g ai/ha, visual injury, 0 to 100 scale (0 no effect, 100 complete control), approx. ten days
[15] = 31 g ai/ha, postemergence, scale 0 to 100, 0 is no effect, 100 is complete control
[16] = postemergence, 100 is complete control
[17] = Postemergence, 125 g ai/ha, scale 0 to 100 (0 no effect, 100 complete control)
[18] = Postemergence, 250 g ai/ha, scale 0 to 100 (0 no effect, 100 complete control)

`CCCn1c(-c2cccc(OC)c2)ncc(C(=O)C2=C(O)CCCC2=O)c1=O` [Compound 100] was tested, and the “Plant response rating, Barnyardgrass” value [1, 11] was 80, the “Plant response rating, Barnyardgrass” value [1, 12] was 90 and the “Plant response rating, Barnyardgrass” value [1, 13] was 40. For the same compound, the “Plant response rating, Barnyardgrass” value [1, 14] was 90, the “Plant response rating, Corn” value (corn (Zea mays); [11]) was 0 and the “Plant response rating, Corn” value (corn (Zea mays); [12]) was 0. For the same compound, the “Plant response rating, Corn” value (corn (Zea mays); [13]) was 0, the “Plant response rating, Corn” value (corn (Zea mays); [14]) was 0 and the “Plant response rating, Foxtail, Giant” value [2, 11] was 80. For the same compound, the “Plant response rating, Foxtail, Giant” value [2, 12] was 90, the “Plant response rating, Foxtail, Giant” value [2, 13] was 50 and the “Plant response rating, Foxtail, Giant” value [2, 14] was 80. For the same compound, the “Plant response rating, Crabgrass, Large” value [3, 11] was 80, the “Plant response rating, Crabgrass, Large” value [3, 12] was 90 and the “Plant response rating, Crabgrass, Large” value [3, 13] was 80. The “Plant response rating, Crabgrass, Large” value [3, 14] was 90, the “Plant response rating, Morningglory” value [4, 11] was 90 and the “Plant response rating, Morningglory” value [4, 12] was 100. The “Plant response rating, Morningglory” value [4, 13] was 70, the “Plant response rating, Morningglory” value [4, 14] was 80 and the “Plant response rating, Pigweed” value [5, 11] was 90. For the same compound, the “Plant response rating, Pigweed” value [5, 12] was 100, the “Plant response rating, Pigweed” value [5, 13] was 80 and the “Plant response rating, Pigweed” value [5, 14] was 100. The “Plant response rating, Velvetleaf” value [6, 11] was 100, the “Plant response rating, Velvetleaf” value [6, 12] was 100 and the “Plant response rating, Velvetleaf” value [6, 13] was 60. The “Plant response rating, Velvetleaf” value [6, 14] was 80, the “Plant response rating, Wheat” value [7, 11] was 0 and the “Plant response rating, Wheat” value [7, 12] was 30. The “Plant response rating, Wheat” value [7, 13] was 0, the “Plant response rating, Wheat” value [7, 14] was 0 and the “Plant response rating, Cocklebur” value [8, 15] was 40. The “Cocklebur plant response rating (0 to 100 scale)” value [8, 16] was 85, the “Plant response rating, Cocklebur” value [8, 17] was 95 and the “Plant response rating, Cocklebur” value [8, 18] was 98. The “Plant response rating, Morningglory” value [9, 15] was 60, the “Morningglory plant response rating (0 to 100 scale)” value [9, 16] was 100 and the “Plant response rating, Morningglory” value [9, 17] was 100. For the same compound, the “Plant response rating, Morningglory” value [9, 18] was 100, the “Soybean plant response rating (0 to 100 scale)” value (soybean (Glycine max)) was 98 and the “Plant response rating, Soybean” value (soybean (Glycine max); 125 g ai/ha) was 100. The “Plant response rating, Soybean” value (soybean (Glycine max); 250 g ai/ha) was 100, the “Wheat plant response rating (0 to 100 scale)” value [10] was 5 and the “Plant response rating, Wheat” value [10] was 15.
`COCCn1c(-c2cccs2)ncc(C(=O)C2=C(O)CCCC2=O)c1=O` [Compound 108] was tested, and the “Plant response rating, Barnyardgrass” value [1, 11] was 90, the “Plant response rating, Barnyardgrass” value [1, 12] was 90 and the “Plant response rating, Barnyardgrass” value [1, 13] was 30. The “Plant response rating, Barnyardgrass” value [1, 14] was 90, the “Plant response rating, Corn” value (corn (Zea mays); [11]) was 0 and the “Plant response rating, Corn” value (corn (Zea mays); [12]) was 40. The “Plant response rating, Corn” value (corn (Zea mays); [13]) was 0, the “Plant response rating, Corn” value (corn (Zea mays); [14]) was 0 and the “Plant response rating, Foxtail, Giant” value [2, 11] was 60. For the same compound, the “Plant response rating, Foxtail, Giant” value [2, 12] was 90, the “Plant response rating, Foxtail, Giant” value [2, 13] was 30 and the “Plant response rating, Foxtail, Giant” value [2, 14] was 40. For the same compound, the “Plant response rating, Crabgrass, Large” value [3, 11] was 90, the “Plant response rating, Crabgrass, Large” value [3, 12] was 90 and the “Plant response rating, Crabgrass, Large” value [3, 13] was 70. For the same compound, the “Plant response rating, Crabgrass, Large” value [3, 14] was 90, the “Plant response rating, Morningglory” value [4, 11] was 100 and the “Plant response rating, Morningglory” value [4, 12] was 100. The “Plant response rating, Morningglory” value [4, 13] was 80, the “Plant response rating, Morningglory” value [4, 14] was 90 and the “Plant response rating, Pigweed” value [5, 11] was 100. For the same compound, the “Plant response rating, Pigweed” value [5, 12] was 100, the “Plant response rating, Pigweed” value [5, 13] was 90 and the “Plant response rating, Pigweed” value [5, 14] was 100. For the same compound, the “Plant response rating, Velvetleaf” value [6, 11] was 100, the “Plant response rating, Velvetleaf” value [6, 12] was 100 and the “Plant response rating, Velvetleaf” value [6, 13] was 80. For the same compound, the “Plant response rating, Velvetleaf” value [6, 14] was 90, the “Plant response rating, Wheat” value [7, 11] was 0 and the “Plant response rating, Wheat” value [7, 12] was 0. The “Plant response rating, Wheat” value [7, 13] was 0, the “Plant response rating, Wheat” value [7, 14] was 0 and the “Plant response rating, Cocklebur” value [8, 15] was 75. For the same compound, the “Cocklebur plant response rating (0 to 100 scale)” value [8, 16] was 95, the “Plant response rating, Cocklebur” value [8, 17] was 100 and the “Plant response rating, Cocklebur” value [8, 18] was 100. The “Plant response rating, Morningglory” value [9, 15] was 75, the “Morningglory plant response rating (0 to 100 scale)” value [9, 16] was 90 and the “Plant response rating, Morningglory” value [9, 17] was 100. For the same compound, the “Plant response rating, Morningglory” value [9, 18] was 100, the “Soybean plant response rating (0 to 100 scale)” value (soybean (Glycine max)) was 55 and the “Plant response rating, Soybean” value (soybean (Glycine max); 125 g ai/ha) was 65. The “Plant response rating, Soybean” value (soybean (Glycine max); 250 g ai/ha) was 85, the “Wheat plant response rating (0 to 100 scale)” value [10] was 0 and the “Plant response rating, Wheat” value [10] was 0.
